# Structures can show the parent of a compound that is named as a salt.
# Assays:
# [1] = system: MeWo, SK-Mel-2, SK-Mel-334.2, SK-Mel-239 human melanoma cells; assay: subcutaneous human melanoma tumor growth in immunocompromised mice; assay type: in vivo, mouse
# [2] = system: DNAJA4 expression in MeWo cells; assay: DNAJA4 mRNA expression by qRT-PCR in melanoma cells; assay type: cell-based, human; details: parental MeWo cells, 48 hours
# Method: Total RNA was extracted from various cell lines using the miRvana kit (AM1560, Applied Biosystems, Austin, Tex.). The expression levels of mature miRNAs were quantified using the Taqman miRNA expression assay (4427975-0002228, Applied Biosystems). RNU44 was used as an endogenous control for normalization. For mRNA expression analyses, 600 ng of total RNA was reverse transcribed using the cDNA First-Strand Synthesis Kit (18080-051, Invitrogen), and roughly 200 ng of the resulting cDNA was then mixed with SYBR green PCR Master Mix (4309155, Applied Biosystems) and the appropriate primers. Each reaction was performed in quadruplicate, and mRNA expression was quantified by performing real-time PCR amplification using an ABI Prism 7900HT Real-Time PCR System (Applied Biosystems). GAPDH was used as an endogenous control for normalization. The following primers were used: […]
# [3] = system: MeWo human melanoma tumors; assay: tumor histochemistry (MECA-32, Ki-67, cleaved caspase-3); assay type: in vivo, mouse
# From the text: Animals were intracardially perfused with PBS followed by 4% paraformaldehyde (PFA). Fixed lungs were embedded in paraffin and sectioned into 5-μm-thick increments. Macroscopic lung metastatic nodules were visualized by H&E staining. For analysis of tumor endothelial cell content, proliferation, and apoptosis, primary tumor paraffin-embedded sections were stained with antibodies against MECA-32 (Developmental Studies Hybridoma Bank, University of Iowa), KI-67 (ab15580, Abcam), and cleaved caspase-3 (9661, Cell Signaling), respectively.
# Tumors were excised from mice and fixed in 4% paraformaldehyde at 4° C. for 48 hours. Then, tumors were paraffin-embedded and sectioned into 5-μm-thick increments. For endothelial cell content analysis in tumors, tumor sections were stained with a primary antibody against the mouse endothelial cell marker MECA-32 (Developmental Studies Hybridoma Bank, The University of Iowa, IA) and counterstained with DAPI nuclear stain. To determine tumor cell proliferation and apoptosis, tumor sections were stained with antibodies against the proliferative marker Ki-67 (Abcam, ab15580, Cambridge, Mass.) and the apoptotic marker cleaved caspase-3 (9661, Cell Signaling, Danvers, Mass.), respectively. Various Alexa Flour dye-conjugated secondary antibodies were used to detect primary antibodies. […] Endothelial cell content density and tumor proliferation rate were quantified by calculating the average percentage of MECA-32 or Ki-67 positively-staining area out of the total tumor area. Tumor apoptosis was measured by counting the number of cleaved caspase-3 expressing cells per given tumor area.
# [4] = system: Tyr::CreER; B-RafV600E/+; Ptenlox/+ and Ptenlox/lox mice; assay: genetically-initiated model of melanoma progression; assay type: in vivo, mouse
# Method: The Tyr::CreER; B-Raf^V600E/+; Pten^lox/+/Tyr::CreER; B-Raf^V600E/+; Pten^lox/lox conditional model of melanoma progression was previously established and characterized by Dankort et al. (2009). Briefly, melanoma in these mice was induced at 6 weeks of age by intraperitoneally injecting 4-HT (H6278, 70% isomer, Sigma-Aldrich, St Louis, Mo.) at 25 mg/kg administered in peanut oil on three consecutive days. The 4-HT stock solution was prepared by dissolving it in 100% EtOH at 50 mg/mL by heating at 45° C. for 5 min and mixing. Once dissolved, the stock 4-HT solution was then diluted by 10-fold in peanut oil, yielding a 5 mg/mL 4-HT working solution that was then injected into mice. After the first 4-HT injection, mice were blindedly assigned to receive either a control diet or a diet supplemented with GW3965 (100 mg/kg). Mice were examined three times a week for the presence and progression of melanoma lesions. At day 35, dorsal skin samples were harvested from control-treated and GW3965-treated mice, fixed in 4% PFA and photographed at 10×. The percentage of pigmented melanoma lesion area out of the total skin area was quantified using ImageJ. For survival analyses, mice were monitored daily for melanoma progression and euthanized according to a standard body condition score, taking into account initial signs of moribund state and discomfort associated with the progression of melanoma burden. Post-mortem, the lungs, brains, and salivary glands were harvested and examined for the presence of macroscopic melanoma lesions.
# [5] = system: MeWo-LM2 cells or endothelial cells; assay: serum starvation assay; assay type: cell-based, human; details: 100 μM, 0.2% FBS
# Method: The number of viable cells was counter after 8, 16, and 24 hours.
# [6] = system: VEGF-induced endothelial recruitment; assay: in vivo matrigel plug assay; design: species or system mouse; details: VEGF 400 ng/mL + 10 μg/mL
# Method: 10 μg/mL recombinant human ApoE3 (4696, BioVision), 10 μg/mL BSA (A2153, Sigma Aldrich), or 400 ng/ml VEGF were mixed with matrigel (356231, BD Biosciences) as indicated. 400 μL of matrigel containing the indicated recombinant proteins were injected subcutaneously just above the ventral flank of immunocompromised NOD-SCID mice. Plugs were extracted on day 3 post-injection and fixed in 4% paraformaldehyde for 48 hours. Plugs were then paraffin-embedded and sectioned at 5-μm-thick increments. Plug cross-sectional sections were immunohistochemically stained using a primary antibody against the mouse endothelial antigen MECA-32 (Developmental Studies Hybridoma Bank, The University of Iowa, IA), detected by peroxidase-conjugated secondary antibody, and subsequently visualized by DAB oxidization. To quantify the extent of endothelial cell invasion into each matrigel plug, the number of endothelial cells was counted in 4-5 random fields for each plug, and the average number of endothelial cells per given plug area was calculated.
compound,measurement,setting,value
"O=C(O)Cc1cccc(OCCCN(Cc2cccc(C(F)(F)F)c2Cl)CC(c2ccccc2)c2ccccc2)c1 [GW3965 2, 3-[3-[N-(2-Chloro-3-trifluoromethylbenzyl)-(2,2-diphenylethyl)amino]propyloxy] phenylacetic acid hydrochloride]",overall survival time of tumor-bearing mice,"[1]; B16F10, MeWo, SK-Mel-334.2 tumors, chow 100 mg/kg",substantially prolonged
same,suppression of growth of SK-Mel-239 vemurafenib-resistant line,[1]; diet 100 mg/kg,72%
same,survival of mice bearing vemurafenib-resistant melanoma burden,[1]; diet 100 mg/kg,significantly prolonged
same,"tumor growth inhibition, MeWo",[1]; oral administration,70%
same,"tumor growth inhibition, SK-Mel-2",[1]; oral administration,49%
same,"tumor growth inhibition, SK-Mel-334.2",[1]; oral administration,73%
same,growth of in vivo-derived DTIC-resistant MeWo tumors,"[1]; oral, diet 100 mg/kg",strongly inhibited
same,expression of DNAJA4,[2],increased expression
same,decrease in number of actively proliferating tumor cells in vivo,[3]; Ki-67,23%
same,number of apoptotic cells,[3]; cleaved caspase-3,without a change
same,reduction in endothelial cell content of tumors,"[3]; diet 20 mg/kg, 35 days, MECA-32",roughly 2 fold
same,number of lymphatic metastases detected post-mortem,"[4]; Ptenlox/lox mice, chow 100 mg/kg",decrease
same,tumor progression,"[4]; oral, diet 100 mg/kg after melanoma initiation",attenuated
same,overall survival times,"[4]; oral, diet 100 mg/kg, Ptenlox/+ and Ptenlox/lox mice",significantly extended
"recombinant ApoE3: recombinant human ApoE3 (4696, BioVision)",survival in serum starvation conditions,[5],did not affect
same,suppression of VEGF-induced endothelial recruitment into subcutaneous matrigel plugs,[6],greater than 40 fold
